Laboratory results: patent publication US20240109930A1, “TRIAZOLYL-METHYL SUBSTITUTED ALPHA-D-GALACTOPYRANOSIDE DERIVATIVES” (Idorsia Pharmaceuticals Ltd, priority 2021, published 2024)

How the values were obtained:
human Gal-3 (hGal-3) = human Gal-3 (hGal-3) (Homo sapiens (Human), UniProt P17931); experiment: Competitive binding assay: biotinylated hGal-3 binding to microplate-adsorbed asialofetuin (ASF); conditions: IC50 values from several measurements given as geomean
In short: (§1)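 Biotinylated hGal-3 or hGal-1 (preferably cysteine-free Cys→Ser mutant), 300–1000 ng/mL, competes with compound for ASF-coated wells for 3 h at 4 °C. Bound lectin detected with streptavidin-peroxidase (80 ng/mL, 1 h, 4 °C) and ABTS by absorbance; IC50 reported as geomean of several runs.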

human Gal-1 (hGal-1) = human Gal-1 (hGal-1) (Homo sapiens, UniProt P09382, C131S/C17S/C43S/C61S/C89S); experiment: Competitive binding assay: biotinylated hGal-1 binding to microplate-adsorbed asialofetuin (ASF); conditions: IC50 values from several measurements given as geomean
In short: as §1

Sequence of human Gal-3 (hGal-3) (P17931 whole entry): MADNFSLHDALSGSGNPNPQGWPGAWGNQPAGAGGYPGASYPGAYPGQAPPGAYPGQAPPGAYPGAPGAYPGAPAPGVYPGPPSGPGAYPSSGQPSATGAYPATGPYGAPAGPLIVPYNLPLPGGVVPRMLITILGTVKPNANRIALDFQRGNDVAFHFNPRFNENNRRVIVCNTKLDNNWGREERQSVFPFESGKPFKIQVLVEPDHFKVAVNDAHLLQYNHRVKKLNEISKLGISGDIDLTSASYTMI

Compound	IC50 (human Gal-3 (hGal-3))	IC50 (human Gal-1 (hGal-1))
CO[C@@H]1[C@@H](n2cc(-c3ccc(Cl)c(F)c3F)nn2)[C@@H](O)[C@@H](CO)O[C@@H]1Cc1cn(C(C)(C)C(F)F)nn1 [Ex 2.1.28.]	0.04 µM	0.78 µM
CO[C@@H]1[C@@H](n2cc(-c3ccc(Cl)c(F)c3F)nn2)[C@@H](O)[C@@H](CO)O[C@@H]1Cc1cn(C2CCC2(F)F)nn1 (single isomer, unassigned) [Example 2.1.63.B]	0.04 µM	2 µM
CO[C@@H]1[C@@H](n2cc(-c3ccc(Cl)c(F)c3F)nn2)[C@@H](O)[C@@H](CO)O[C@@H]1Cn1cc(C2(C(F)(F)F)CC2)nn1 [Ex 2.2.54.]	0.07 µM	2.46 µM
CO[C@@H]1[C@@H](n2cc(-c3ccc(F)c(F)c3F)nn2)[C@@H](O)[C@@H](CO)O[C@@H]1Cc1cn(C2(C(F)F)CCC2)nn1 [Ex 3.1.43., (2R,3R,4S,5R,6R)-6-((1-(1-(difluoromethyl)cyclobutyl)-1H-1,2,3-triazol-4-yl)methyl)-2-(hydroxymethyl)-5-methoxy-4-(4-(2,3,4-trifluorophenyl)-1H-1,2,3-triazol-1-yl)tetrahydro-2H-pyran-3-ol]	0.03 µM	0.21 µM
CO[C@@H]1[C@@H](n2cc(-c3ccc(Cl)c(F)c3F)nn2)[C@@H](O)[C@@H](CO)O[C@@H]1Cc1cn(C2(CF)CC2(F)F)nn1 (stereo partly drawn) [Ex 2.1.76., (2R,3R,4S,5R,6R)-4-(4-(4-chloro-2,3-difluorophenyl)-1H-1,2,3-triazol-1-yl)-6-((1-(2,2-difluoro-1-(fluoromethyl)cyclopropyl)-1H-1,2,3-triazol-4-yl)methyl)-2-(hydroxymethyl)-5-methoxytetrahydro-2H-pyran-3-ol]	0.02 µM	0.81 µM
CO[C@@H]1[C@@H](n2cc(-c3ccc(Cl)c(F)c3F)nn2)[C@@H](O)[C@@H](CO)O[C@@H]1Cc1cn(C2CC3(CC3)C2)nn1 [Ex 2.1.26.]	0.1 µM	7.86 µM
CO[C@@H]1[C@@H](n2cc(-c3ccc(C)c(F)c3F)nn2)[C@@H](O)[C@@H](CO)O[C@@H]1Cn1cc(C2(O)CCCC2)nn1 [Ex 1.2.33.]	0.11 µM	5.7 µM
CO[C@@H]1[C@@H](n2cc(-c3ccc(Cl)c(F)c3F)nn2)[C@@H](O)[C@@H](CO)O[C@@H]1Cc1cn([C@@H]2CCOC[C@@H]2F)nn1 [Example 2.1.66.A, (2R,3R,4S,5R,6R)-4-(4-(4-chloro-2,3-difluorophenyl)-1H-1,2,3-triazol-1-yl)-6-((1-((3R,4R)-3-fluorotetrahydro-2H-pyran-4-yl)-1H-1,2,3-triazol-4-yl)methyl)-2-(hydroxymethyl)-5-methoxytetrahydro-2H-pyran-3-ol]	0.01 µM	0.57 µM
CO[C@@H]1[C@@H](n2cc(-c3ccc(C)c(F)c3F)nn2)[C@@H](O)[C@@H](CO)O[C@@H]1Cc1cn(C23CC(F)(C2)C3)nn1 [Ex 1.1.25.]	0.04 µM	3.95 µM
CCC(C)(C)n1cc(C[C@H]2O[C@H](CO)[C@H](O)[C@H](n3cc(-c4ccc(Cl)c(F)c4F)nn3)[C@H]2OC)nn1 [Ex 2.1.49., (2R,3R,4S,5R,6R)-4-(4-(4-Chloro-2,3-difluorophenyl)-1H-1,2,3-triazol-1-yl)-2-(hydroxymethyl)-5-methoxy-6-((1-(tert-pentyl)-1H-1,2,3-triazol-4-yl)methyl)tetrahydro-2H-pyran-3-ol]	0.03 µM	1.33 µM
CO[C@@H]1[C@@H](n2cc(-c3ccc(Cl)c(F)c3F)nn2)[C@@H](O)[C@@H](CO)O[C@@H]1Cc1cn(C23CC(C)(C2)C3)nn1 [Ex 2.1.14.]	0.05 µM	3.45 µM
CO[C@@H]1[C@@H](n2cc(-c3ccc(Cl)c(F)c3F)nn2)[C@@H](O)[C@@H](CO)O[C@@H]1Cn1cc(C2(C(F)F)CC2)nn1 [Ex 2.2.51.]	0.06 µM	2.55 µM
CO[C@@H]1[C@@H](n2cc(-c3ccc(Cl)c(F)c3F)nn2)[C@@H](O)[C@@H](CO)O[C@@H]1Cc1cn([C@]2(C)C[C@@H](O)C2)nn1 [Ex 2.1.27.]	0.03 µM	0.7 µM
CO[C@@H]1[C@@H](n2cc(-c3ccc(Cl)c(F)c3F)nn2)[C@@H](O)[C@@H](CO)O[C@@H]1Cc1cn([C@]2(C)CCO[C@@H]2C)nn1 (single isomer, unassigned) [Example 2.1.68.A, (2R,3R,4S,5R,6R)-4-(4-(4-chloro-2,3-difluorophenyl)-1H-1,2,3-triazol-1-yl)-6-((1-((2R*,3R*)-2,3-dimethyltetrahydrofuran-3-yl)-1H-1,2,3-triazol-4-yl)methyl)-2-(hydroxymethyl)-5-methoxytetrahydro-2H-pyran-3-ol]	0.03 µM	1.1 µM
CO[C@@H]1[C@@H](n2cc(-c3ccc(F)c(F)c3F)nn2)[C@@H](O)[C@@H](CO)O[C@@H]1Cc1cn(C2(C)COC2)nn1 [Ex 3.1.6., (2R,3R,4S,5R,6R)-2-(hydroxymethyl)-5-methoxy-6-((1-(3-methyloxetan-3-yl)-1H-1,2,3-triazol-4-yl)methyl)-4-(4-(2,3,4-trifluorophenyl)-1H-1,2,3-triazol-1-yl)tetrahydro-2H-pyran-3-ol]	0.05 µM	0.19 µM
CO[C@@H]1[C@@H](n2cc(-c3ccc(Cl)c(F)c3F)nn2)[C@@H](O)[C@@H](CO)O[C@@H]1Cc1cn(C2CCCCC2(F)F)nn1 (single isomer, unassigned) [Example 2.1.80.B]	0.03 µM	1.74 µM
CO[C@@H]1[C@@H](n2cc(-c3ccc(Cl)c(F)c3F)nn2)[C@@H](O)[C@@H](CO)O[C@@H]1Cc1cn(C2(CO)CC(F)(F)C2)nn1 [Ex 2.1.18.]	0.04 µM	2.81 µM
CO[C@@H]1[C@@H](n2cc(-c3ccc(Cl)c(F)c3F)nn2)[C@@H](O)[C@@H](CO)O[C@@H]1Cc1cn([C@@H]2CC[C@H]2F)nn1 (single isomer, unassigned) [Example 2.1.88.D, (2R,3R,4S,5R,6R)-4-(4-(4-chloro-2,3-difluorophenyl)-1H-1,2,3-triazol-1-yl)-6-((1-((1R*,2R*)-2-fluorocyclobutyl)-1H-1,2,3-triazol-4-yl)methyl)-2-(hydroxymethyl)-5-methoxytetrahydro-2H-pyran-3-ol]	0.04 µM	2.27 µM
CO[C@@H]1[C@@H](n2cc(-c3ccc(Cl)c(F)c3F)nn2)[C@@H](O)[C@@H](CO)O[C@@H]1Cc1cn(C2CC(F)C2)nn1 (single isomer, unassigned) [Example 2.1.60.A]	0.02 µM	0.69 µM
CO[C@@H]1[C@@H](n2cc(-c3ccc(Br)c(F)c3F)nn2)[C@@H](O)[C@@H](CO)O[C@@H]1Cc1cn(C2(C)CCC2)nn1 [Ex 4.1.13.]	0.02 µM	2.2 µM
CO[C@@H]1[C@@H](n2cc(-c3ccc(Br)c(F)c3F)nn2)[C@@H](O)[C@@H](CO)O[C@@H]1Cc1cn([C@]2(C)C[C@H](O)C2)nn1 [Ex 4.1.19.]	0.05 µM	1.82 µM
CO[C@@H]1[C@@H](n2cc(-c3ccc(Cl)c(F)c3F)nn2)[C@@H](O)[C@@H](CO)O[C@@H]1Cc1cn(C2(C(F)(F)F)CCOC2)nn1 (single isomer, unassigned) [Example 2.1.77.B]	0.03 µM	0.59 µM
CCC(C)(CC)n1cc(C[C@H]2O[C@H](CO)[C@H](O)[C@H](n3cc(-c4ccc(Cl)c(F)c4F)nn3)[C@H]2OC)nn1 [Ex 2.1.50.]	0.07 µM	1.6 µM
CO[C@@H]1[C@@H](n2cc(-c3ccc(Br)c(F)c3F)nn2)[C@@H](O)[C@@H](CO)O[C@@H]1Cc1cn(C23CC(OC)(C2)C3)nn1 [Ex 4.1.29.]	0.05 µM	3.63 µM
